Here are results for seven compounds from patent US20120128657A1, “SYNTHETIC MACROCYCLIC COMPOUNDS AND METHODS FOR TREATING CANCER” (priority 2007, published 2012).

Test [1] deals with 4T1 breast tumor cells. Put plainly: In vitro wound-healing assay. The class given is cell-based, mouse. As to conditions: 4T1 cells, medium with 10% FBS, overnight incubation at 37° C. The procedure:
In vitro Wound-Healing Assay: 4T1 breast tumor cells in medium containing 10% fetal bovine serum (FBS) were seeded into wells of 24-multiwell plates (Becton-Dickinson). After they grew to confluence, wounds were made with sterile pipette tips. Cells were washed with Phosphate Buffered Saline (PBS) and refreshed with medium with or without 10% FBS. After overnight incubation at 37° C., cells were fixed and photographed according to protocols described by Yang, S, and Huang, X.-Y. J. Biol. Chem. 2005, 280, 27130-27137; and Shan, D.; Chen, L.; Njardarson, J. T.; Gaul, C.; Ma, X.; Danishefsky, S. J.; and Huang, X.-Y. Proc. Natl. Acad. Sci. U.S.A. 2005, 102, 3772-3776, both the Yang and Shan references are incorporated herein by reference.

The test system of test [2] is Bacillus subtilis (ATCC 49343). Briefly: Modified disc diffusion antimicrobial assay. The class given is cell-based. As to conditions: ATCC49343, B. subtilis, 50 μg/disk, 6 mm disks, 37° C., 18 hours. The procedure:
Antimicrobial Assays Compounds were tested for antimicrobial activity against Escherichia coli (ATCC 8739) and Bacillus subtilis (ATCC 49343) and for antifungal activity against Candida albicans (ATCC 90027) using a modified disc diffusion assay. Briefly, agar plates seeded with suspensions of bacteria or fungi were prepared by adding 500 μL of a 24 h culture of bacteria to 100 mL of autoclaved Antibiotic Medium 2 (AB2) containing 1% agar and cooled to 55° C., or of fungi to Sabouraud Dextrose Agar (SDA) at 55° C. Seeded liquid agar (10 mL) was transferred immediately to square Petri dishes and allowed to cool for 1 h. Controls used for C. albicans, E. coli and B. subtilis included amphotericin B (25 μg), ampicillin (50 μg) and choloramphenicol (12.5 μg), respectively. Sterile disks (6 mm) containing control antibiotics or one of the macrocycles ([…]) were placed onto the agar and plates were incubated at 37° C. for 18 hours Inhibitory activity was measured by the zones of inhibition.

The subject of test [3] is 4T1 breast tumor cells. Put plainly: Cell proliferation assay. Type of test: cell-based, mouse. As to conditions: DMEM with 10% FBS, cells counted daily (FIG. 1). The procedure: Cell Proliferation Assay: 4T1 breast tumor cells were trypsinized, resuspended in Dulbecco's Modified Eagle Medium (DMEM) with 10% FBS and counted. 5×10^4 cells were plated per well in a 6-well dish and grown in DMEM with 10% FBS. Each day of the assay, one well of each type of cell was trypsinized and the cells were counted.

The subject of test [4] is 4T1 breast tumor cells. Briefly: Chamber cell migration assay (Boyden chambers). The class given is cell-based. The conditions noted are these: Mus musculus, 10% FBS in lower chamber, 4 h. The procedure: Chamber Cell Migration Assay: Cell migration was assayed in Boyden chambers [8.0 μm pore size polyethylene terephthalate membrane, FALCON cell culture insert (Becton-Dickinson)]. Cells were trypsinized and counted. 5-10×10^4 cells in serum free medium (300 μl) were added to the upper chamber and 500 μl of appropriate medium with 10% FBS were added to the lower chamber. Transwells were incubated for 4 h at 37° C. Cells on the inside of the transwell inserts were removed with a cotton swab, and cells on the underside of the insert were fixed and stained. Photographs of three random fields were taken and the number of cells counted to calculate the average number of cells that had transmigrated. Results in the form of IC50 values obtained from the chamber migration assay using 4T1 breast tumor cells for compounds 1-6 are presented in Table 1.

The structures appear in SMILES notation. A value given as a limit tells only on which side of the number the result lay.

Regarding `O=C1CC/C=C\CNC(=O)[C@]2(O)C[C@@H](O)[C@@H](O)[C@@H](C2)O1` [Compound 1], in test [1], the “closure of the wound (cell migration)” value is on record as “prevented closure of the wound”. The zone of inhibition at 50 µg/disc in test [2] is 9 mm. Besides, the 4T1 cell proliferation entry in test [3] was “does not affect 4T1 cell proliferation”. In test [4] (unit column prints nM), this compound returned an IC50 of 77 ± 17 nM.
In the case of `O=C1CC/C=C/CNC(=O)[C@]2(O)C[C@@H](O)[C@@H](O)[C@@H](C2)O1` [Compound 2], the IC50 in test [4] (unit given in μM) was more than 250000 nM.
Regarding `O=C1CCCC/C=C\CNC(=O)[C@]2(O)C[C@@H](O)[C@@H](O)[C@@H](C2)O1` [Compound 3], the zone of inhibition at 50 µg/disc in test [2] worked out at 8.5 mm. In test [4] (unit given in μM), the IC50 is 525000 ± 163000 nM.
Regarding `O=C1CCCC/C=C/CNC(=O)[C@]2(O)C[C@@H](O)[C@@H](O)[C@@H](C2)O1` [Compound 4], in test [2], the zone of inhibition at 50 µg/disc was 7.5 mm. In test [4] (unit given in μM), 12000 ± 2900 nM corresponded to half-maximal inhibition (IC50).
The compound `CC(C)(C)OC(=O)NC(Cc1ccccc1)C(=O)O[C@@H]1C[C@]2(O)C[C@@H](OC(=O)CCCC/C=C\CNC2=O)[C@@H]1O` (stereo partly drawn) [Compound 5] returned an IC50 in test [4] (unit given in μM) of more than 500000 nM.
On to `CC(C)=CC(=O)O[C@@H]1C[C@]2(O)C[C@@H](OC(=O)CCCC/C=C\CNC2=O)[C@@H]1O` [Compound 6], for which, in test [4] (unit column prints nM), the midpoint of inhibition, the IC50, lay at 550 ± 189 nM.
As for `CC1(C)S[C@@H]2[C@H](NC(=O)[C@H](N)c3ccccc3)C(=O)N2[C@H]1C(=O)O` [ampicillin, reference compound], the zone of inhibition at 50 µg/disc in test [2] is 15 mm.
